# Reference: patent US20030153546A1, “Microbicidal effect of prophyrines in darkness” (priority 1999, published 2003)
# Test system: E. coli cells
# Test: Inhibition of growth of E. coli cells after 5-minute incubation in the dark (optical density at 650 nm)
# Assay type: cell-based
# Conditions: 1 μM porphyrine, growth at 37° C
# Experimental: (§1) For this, porphyrines of different chemical structures (see drawing) were incubated with E. coli and S. aureus cells in the dark. The porphyrines were added to aqueous suspension comprising an amount of bacterial cells of 10^8 per ml and stored for 5 minutes in the dark. Finally, the amount of porphyrine bonded to the cells was measured depending on the number of washing […] (the washing was carried out by means of physiological solutions) by chemical extraction followed spectrophotofluorimetric determination.
# (§2) The survival rate of the bacterial cells after incubation with the different porphyrines was determined by diluting 0.3 ml of the suspension with 2.7 ml of the culture medium and recording the optical density at 650 nm depending on the time. The suspensions were kept at 37° C. The percentual inhibition of growth was calculated with reference to a suspension of comparative cells which had been treated with the same method, however had not been added to the porphyrine.
row,SMILES,inhibition of growth (%) E. coli
1,CCCCCC[n+]1ccc(-c2c3nc(c(-c4cc[n+](C)cc4)c4ccc([nH]4)c(-c4cc[n+](C)cc4)c4nc(c(-c5cc[n+](C)cc5)c5ccc2[nH]5)C=C4)C=C3)cc1 [mono-C6],0.5%
2,CCCCCCCCCCCCCC[n+]1ccc(-c2c3nc(c(-c4cc[n+](C)cc4)c4ccc([nH]4)c(-c4cc[n+](C)cc4)c4nc(c(-c5cc[n+](C)cc5)c5ccc2[nH]5)C=C4)C=C3)cc1 [mono-C14],46.1%
3,CCCCCCCCCCCCCCCCCC[n+]1ccc(-c2c3nc(c(-c4cc[n+](C)cc4)c4ccc([nH]4)c(-c4cc[n+](C)cc4)c4nc(c(-c5cc[n+](C)cc5)c5ccc2[nH]5)C=C4)C=C3)cc1 [mono-C18],2.7%

# Same assay, conditions: 10 μM porphyrine, growth at 37° C
row,SMILES,inhibition of growth (%) E. coli
1,CCCCCC[n+]1ccc(-c2c3nc(c(-c4cc[n+](C)cc4)c4ccc([nH]4)c(-c4cc[n+](C)cc4)c4nc(c(-c5cc[n+](C)cc5)c5ccc2[nH]5)C=C4)C=C3)cc1 [mono-C6],14.6%
2,CCCCCCCCCCCCCC[n+]1ccc(-c2c3nc(c(-c4cc[n+](C)cc4)c4ccc([nH]4)c(-c4cc[n+](C)cc4)c4nc(c(-c5cc[n+](C)cc5)c5ccc2[nH]5)C=C4)C=C3)cc1 [mono-C14],100%
3,CCCCCCCCCCCCCCCCCC[n+]1ccc(-c2c3nc(c(-c4cc[n+](C)cc4)c4ccc([nH]4)c(-c4cc[n+](C)cc4)c4nc(c(-c5cc[n+](C)cc5)c5ccc2[nH]5)C=C4)C=C3)cc1 [mono-C18],85.7%

# Test system: S. aureus cells
# Test: Inhibition of growth of S. aureus cells after 5-minute incubation in the dark (optical density at 650 nm)
# Assay type: cell-based
# Conditions: 1 μM porphyrine, growth at 37° C
# Experimental: as §1, §2
row,SMILES,inhibition of growth (%) S. aureus
1,CCCCCC[n+]1ccc(-c2c3nc(c(-c4cc[n+](C)cc4)c4ccc([nH]4)c(-c4cc[n+](C)cc4)c4nc(c(-c5cc[n+](C)cc5)c5ccc2[nH]5)C=C4)C=C3)cc1 [mono-C6],5.1%
2,CCCCCCCCCCCCCC[n+]1ccc(-c2c3nc(c(-c4cc[n+](C)cc4)c4ccc([nH]4)c(-c4cc[n+](C)cc4)c4nc(c(-c5cc[n+](C)cc5)c5ccc2[nH]5)C=C4)C=C3)cc1 [mono-C14],69.1%
3,CCCCCCCCCCCCCCCCCC[n+]1ccc(-c2c3nc(c(-c4cc[n+](C)cc4)c4ccc([nH]4)c(-c4cc[n+](C)cc4)c4nc(c(-c5cc[n+](C)cc5)c5ccc2[nH]5)C=C4)C=C3)cc1 [mono-C18],39.8%

# Same assay, conditions: 10 μM porphyrine, growth at 37° C
row,SMILES,inhibition of growth (%) S. aureus
1,CCCCCC[n+]1ccc(-c2c3nc(c(-c4cc[n+](C)cc4)c4ccc([nH]4)c(-c4cc[n+](C)cc4)c4nc(c(-c5cc[n+](C)cc5)c5ccc2[nH]5)C=C4)C=C3)cc1 [mono-C6],8.8%
2,CCCCCCCCCCCCCC[n+]1ccc(-c2c3nc(c(-c4cc[n+](C)cc4)c4ccc([nH]4)c(-c4cc[n+](C)cc4)c4nc(c(-c5cc[n+](C)cc5)c5ccc2[nH]5)C=C4)C=C3)cc1 [mono-C14],92.4%
3,CCCCCCCCCCCCCCCCCC[n+]1ccc(-c2c3nc(c(-c4cc[n+](C)cc4)c4ccc([nH]4)c(-c4cc[n+](C)cc4)c4nc(c(-c5cc[n+](C)cc5)c5ccc2[nH]5)C=C4)C=C3)cc1 [mono-C18],96.6%

# Test system: S. aureus cells
# Test: Recovery of porphyrine bonded to S. aureus cells after dark incubation and washing steps
# Assay type: cell-based
# Conditions: 1 μM porphyrine, 5 minutes in the dark, 1 washing step
# Experimental: as §1
row,SMILES,recovery (nmol/mg protein) 1 washing step
1,CCCCCC[n+]1ccc(-c2c3nc(c(-c4cc[n+](C)cc4)c4ccc([nH]4)c(-c4cc[n+](C)cc4)c4nc(c(-c5cc[n+](C)cc5)c5ccc2[nH]5)C=C4)C=C3)cc1 [mono-C6],2.05 ± 0.11 nmol/mg protein
2,CCCCCCCCCCCCCC[n+]1ccc(-c2c3nc(c(-c4cc[n+](C)cc4)c4ccc([nH]4)c(-c4cc[n+](C)cc4)c4nc(c(-c5cc[n+](C)cc5)c5ccc2[nH]5)C=C4)C=C3)cc1 [mono-C14],5.53 ± 0.74 nmol/mg protein

# Same assay, conditions: 1 μM porphyrine, 5 minutes in the dark, 3 washing steps
row,SMILES,recovery (nmol/mg protein) 3 washing steps
1,CCCCCC[n+]1ccc(-c2c3nc(c(-c4cc[n+](C)cc4)c4ccc([nH]4)c(-c4cc[n+](C)cc4)c4nc(c(-c5cc[n+](C)cc5)c5ccc2[nH]5)C=C4)C=C3)cc1 [mono-C6],1.02 ± 0.12 nmol/mg protein
2,CCCCCCCCCCCCCC[n+]1ccc(-c2c3nc(c(-c4cc[n+](C)cc4)c4ccc([nH]4)c(-c4cc[n+](C)cc4)c4nc(c(-c5cc[n+](C)cc5)c5ccc2[nH]5)C=C4)C=C3)cc1 [mono-C14],4.32 ± 0.13 nmol/mg protein

# Same assay, conditions: 1 μM porphyrine, 5 minutes in the dark, after 3 washing steps
row,SMILES,% bonded after 3 washing steps
1,CCCCCC[n+]1ccc(-c2c3nc(c(-c4cc[n+](C)cc4)c4ccc([nH]4)c(-c4cc[n+](C)cc4)c4nc(c(-c5cc[n+](C)cc5)c5ccc2[nH]5)C=C4)C=C3)cc1 [mono-C6],33.6%
2,CCCCCCCCCCCCCC[n+]1ccc(-c2c3nc(c(-c4cc[n+](C)cc4)c4ccc([nH]4)c(-c4cc[n+](C)cc4)c4nc(c(-c5cc[n+](C)cc5)c5ccc2[nH]5)C=C4)C=C3)cc1 [mono-C14],65.9%

# Same assay, conditions: 1 μM porphyrine, 5 minutes in the dark, no washing
row,SMILES,recovery (nmol/mg protein) no washing
1,CCCCCC[n+]1ccc(-c2c3nc(c(-c4cc[n+](C)cc4)c4ccc([nH]4)c(-c4cc[n+](C)cc4)c4nc(c(-c5cc[n+](C)cc5)c5ccc2[nH]5)C=C4)C=C3)cc1 [mono-C6],3.04 ± 0.05 nmol/mg protein
2,CCCCCCCCCCCCCC[n+]1ccc(-c2c3nc(c(-c4cc[n+](C)cc4)c4ccc([nH]4)c(-c4cc[n+](C)cc4)c4nc(c(-c5cc[n+](C)cc5)c5ccc2[nH]5)C=C4)C=C3)cc1 [mono-C14],6.56 ± 0.40 nmol/mg protein

# Test system: E. coli cells
# Test: Recovery of porphyrine bonded to E. coli cells after dark incubation and washing steps
# Assay type: cell-based
# Conditions: 1 μM porphyrine, 5 minutes, 1 washing step
# Experimental: as §1
row,SMILES,recovery (nmol/mg protein) 1 washing step
1,CCCCCC[n+]1ccc(-c2c3nc(c(-c4cc[n+](C)cc4)c4ccc([nH]4)c(-c4cc[n+](C)cc4)c4nc(c(-c5cc[n+](C)cc5)c5ccc2[nH]5)C=C4)C=C3)cc1 [mono-C6],1.01 ± 0.12 nmol/mg protein
2,CCCCCCCCCCCCCC[n+]1ccc(-c2c3nc(c(-c4cc[n+](C)cc4)c4ccc([nH]4)c(-c4cc[n+](C)cc4)c4nc(c(-c5cc[n+](C)cc5)c5ccc2[nH]5)C=C4)C=C3)cc1 [mono-C14],3.06 ± 0.25 nmol/mg protein
3,CCCCCCCCCCCCCCCCCC[n+]1ccc(-c2c3nc(c(-c4cc[n+](C)cc4)c4ccc([nH]4)c(-c4cc[n+](C)cc4)c4nc(c(-c5cc[n+](C)cc5)c5ccc2[nH]5)C=C4)C=C3)cc1 [mono-C18],4.08 ± 0.62 nmol/mg protein
4,CCCCCC[n+]1ccc(-c2c3nc(c(-c4cc[n+](CCCCCC)cc4)c4ccc([nH]4)c(-c4cc[n+](CCCCCC)cc4)c4nc(c(-c5cc[n+](CCCCCC)cc5)c5ccc2[nH]5)C=C4)C=C3)cc1 [tetra-C6],1.39 ± 0.23 nmol/mg protein

# Same assay, conditions: 1 μM porphyrine, 5 minutes, 3 washing steps
row,SMILES,recovery (nmol/mg protein) 3 washing steps
1,CCCCCC[n+]1ccc(-c2c3nc(c(-c4cc[n+](C)cc4)c4ccc([nH]4)c(-c4cc[n+](C)cc4)c4nc(c(-c5cc[n+](C)cc5)c5ccc2[nH]5)C=C4)C=C3)cc1 [mono-C6],0.39 ± 0.12 nmol/mg protein
2,CCCCCCCCCCCCCC[n+]1ccc(-c2c3nc(c(-c4cc[n+](C)cc4)c4ccc([nH]4)c(-c4cc[n+](C)cc4)c4nc(c(-c5cc[n+](C)cc5)c5ccc2[nH]5)C=C4)C=C3)cc1 [mono-C14],2.28 ± 0.04 nmol/mg protein
3,CCCCCCCCCCCCCCCCCC[n+]1ccc(-c2c3nc(c(-c4cc[n+](C)cc4)c4ccc([nH]4)c(-c4cc[n+](C)cc4)c4nc(c(-c5cc[n+](C)cc5)c5ccc2[nH]5)C=C4)C=C3)cc1 [mono-C18],2.54 ± 0.38 nmol/mg protein
4,CCCCCC[n+]1ccc(-c2c3nc(c(-c4cc[n+](CCCCCC)cc4)c4ccc([nH]4)c(-c4cc[n+](CCCCCC)cc4)c4nc(c(-c5cc[n+](CCCCCC)cc5)c5ccc2[nH]5)C=C4)C=C3)cc1 [tetra-C6],0.94 ± 0.24 nmol/mg protein

# Same assay, conditions: 1 μM porphyrine, 5 minutes, after 3 washing steps
row,SMILES,% bonded after 3 washing steps
1,CCCCCC[n+]1ccc(-c2c3nc(c(-c4cc[n+](C)cc4)c4ccc([nH]4)c(-c4cc[n+](C)cc4)c4nc(c(-c5cc[n+](C)cc5)c5ccc2[nH]5)C=C4)C=C3)cc1 [mono-C6],24.7%
2,CCCCCCCCCCCCCC[n+]1ccc(-c2c3nc(c(-c4cc[n+](C)cc4)c4ccc([nH]4)c(-c4cc[n+](C)cc4)c4nc(c(-c5cc[n+](C)cc5)c5ccc2[nH]5)C=C4)C=C3)cc1 [mono-C14],42.4%
3,CCCCCCCCCCCCCCCCCC[n+]1ccc(-c2c3nc(c(-c4cc[n+](C)cc4)c4ccc([nH]4)c(-c4cc[n+](C)cc4)c4nc(c(-c5cc[n+](C)cc5)c5ccc2[nH]5)C=C4)C=C3)cc1 [mono-C18],60.5%
4,CCCCCC[n+]1ccc(-c2c3nc(c(-c4cc[n+](CCCCCC)cc4)c4ccc([nH]4)c(-c4cc[n+](CCCCCC)cc4)c4nc(c(-c5cc[n+](CCCCCC)cc5)c5ccc2[nH]5)C=C4)C=C3)cc1 [tetra-C6],57.0%

# Same assay, conditions: 1 μM porphyrine, 5 minutes, no washing
row,SMILES,recovery (nmol/mg protein) no washing
1,CCCCCC[n+]1ccc(-c2c3nc(c(-c4cc[n+](C)cc4)c4ccc([nH]4)c(-c4cc[n+](C)cc4)c4nc(c(-c5cc[n+](C)cc5)c5ccc2[nH]5)C=C4)C=C3)cc1 [mono-C6],1.58 ± 0.28 nmol/mg protein
2,CCCCCCCCCCCCCC[n+]1ccc(-c2c3nc(c(-c4cc[n+](C)cc4)c4ccc([nH]4)c(-c4cc[n+](C)cc4)c4nc(c(-c5cc[n+](C)cc5)c5ccc2[nH]5)C=C4)C=C3)cc1 [mono-C14],5.38 ± 0.06 nmol/mg protein
3,CCCCCCCCCCCCCCCCCC[n+]1ccc(-c2c3nc(c(-c4cc[n+](C)cc4)c4ccc([nH]4)c(-c4cc[n+](C)cc4)c4nc(c(-c5cc[n+](C)cc5)c5ccc2[nH]5)C=C4)C=C3)cc1 [mono-C18],4.20 ± 0.16 nmol/mg protein
4,CCCCCC[n+]1ccc(-c2c3nc(c(-c4cc[n+](CCCCCC)cc4)c4ccc([nH]4)c(-c4cc[n+](CCCCCC)cc4)c4nc(c(-c5cc[n+](CCCCCC)cc5)c5ccc2[nH]5)C=C4)C=C3)cc1 [tetra-C6],1.65 ± 0.17 nmol/mg protein
